Laboratory results published in patent publication US11071731B2, “Allosteric modulators of the mu opioid receptor” (Chiromics, LLC, priority 2017, dated 2021).

Assays:
mu opioid receptor (MOR) [1] = molecular target: T1, mu opioid receptor (MOR) (Homo sapiens, UniProt P35372); assay: PathHunter β-arrestin recruitment assay, PAM mode with EC20 endomorphin-1; assay type: cell-based; settings: for EC50: read-out: β-arr. EC50; for allosteric activity for β-arrestin recruitment: EC20 endomorphin-1 concentration of 4.5 nM
In short: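 Enzyme fragment complementation read-out: β-gal ED fragment fused to receptor, EA fused to β-arrestin, recruitment restoring β-gal activity detected by chemiluminescence. EC50 and percent maximal response derived for each compound.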

mu opioid receptor (MOR) [2] = molecular target: T1, mu opioid receptor (MOR); assay: Hit Hunter cAMP signaling assay (adenylyl cyclase inhibition), PAM mode with EC20 endomorphin-1; assay type: cell-based; settings: for allosteric activity for cAMP signaling: EC20 endomorphin-1 concentration of 0.45 nM
[3] = maximal response, β-arrestin recruitment
[4] = adenylyl cyclase inhibition, read-out: cAMP EC50
[5] = maximal response, adenylyl cyclase inhibition
[6] = maximal response for β-arrestin recruitment
[7] = maximal response for adenylyl cyclase inhibition
[8] = maximal response for β-arrestin recruitment, Table 3
[9] = β-arrestin recruitment, Table 3
[10] = cAMP EC50 (nM), adenylyl cyclase inhibition, Table 3
[11] = cAMP EC50, adenylyl cyclase inhibition
[12] = maximal response for adenylyl cyclase inhibition, Table 3

T1 sequence (P35372 whole entry, the tested form may be a part): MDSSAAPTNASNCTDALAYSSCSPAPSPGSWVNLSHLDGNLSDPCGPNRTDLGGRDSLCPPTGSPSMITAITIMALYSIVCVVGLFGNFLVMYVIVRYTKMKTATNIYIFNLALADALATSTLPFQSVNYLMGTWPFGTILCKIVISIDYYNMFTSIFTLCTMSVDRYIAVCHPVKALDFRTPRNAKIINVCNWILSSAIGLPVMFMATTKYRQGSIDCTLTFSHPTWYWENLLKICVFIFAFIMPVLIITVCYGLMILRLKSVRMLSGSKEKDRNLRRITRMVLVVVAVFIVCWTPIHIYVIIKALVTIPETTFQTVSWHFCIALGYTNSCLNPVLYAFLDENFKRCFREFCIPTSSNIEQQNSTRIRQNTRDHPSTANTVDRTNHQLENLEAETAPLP

| Structure (SMILES) | EC50 (mu opioid receptor (MOR) [1]; β-arrestin recruitment) [nM] | EC50 (mu opioid receptor (MOR) [2]; [4]) [nM] | β-arr Max. Resp. (mu opioid receptor (MOR) [1]; [6]) | cAMP Max. Resp. (mu opioid receptor (MOR) [2]; [7]) | other results |
| --- | --- | --- | --- | --- | --- |
| O=S(=O)(c1ccc(Cl)cc1)N1CCCCC1c1ccc(F)c(Br)c1 (single isomer, unassigned) [compound 446] | > 2100 | > 2100 |  |  | β-arr Max. Resp. (mu opioid receptor (MOR) [1]; [3]): F (F represents a maximal response of > 60%); cAMP Max. Resp. (mu opioid receptor (MOR) [2]; [5]): E (E represents a maximal response of 40-60%) |
| O=S(=O)(c1cccc(Cl)c1)N1CCCCC1c1cccc(C(F)(F)F)c1 (stereo not shown) [Compound 21] | > 2100 | > 2100 | F (F represents a maximal response of > 60%) | F (F represents a maximal response of > 60%) |  |
| O=S(=O)(Cc1ccc(Cl)cc1)N1CCCCC1c1cccc(C(F)(F)F)c1 (stereo not shown) [Compound 22] | > 2100 | > 2100 | F (F represents a maximal response of > 60%) | D (D represents a maximal response of < 40%) |  |
| O=S(=O)(Cc1ccc(Cl)c(Cl)c1)N1CCCCC1c1cccc(C(F)(F)F)c1 (stereo not shown) [Compound 23] | > 2100 | > 2100 | F (F represents a maximal response of > 60%) | D (D represents a maximal response of < 40%) |  |
| O=S(=O)(Cc1ccccc1Cl)N1CCCCC1c1cccc(C(F)(F)F)c1 (stereo not shown) [Compound 24] | > 2100 | > 2100 | F (F represents a maximal response of > 60%) | D (D represents a maximal response of < 40%) |  |
| O=S(=O)(c1ccc(Cl)cc1F)N1CCCCC1c1cccc(C(F)(F)F)c1 (stereo not shown) [Compound 25] | > 2100 | > 2100 | F (F represents a maximal response of > 60%) | D (D represents a maximal response of < 40%) |  |
| O=S(=O)(c1cc(F)ccc1F)N1CCCCC1c1cccc(C(F)(F)F)c1 (stereo not shown) [Compound 26] | > 2100 | > 2100 | F (F represents a maximal response of > 60%) | D (D represents a maximal response of < 40%) |  |
| Cc1cccc(S(=O)(=O)N2CCCCC2c2cccc(C(F)(F)F)c2)c1 (stereo not shown) [Compound 27] | > 2100 | > 2100 | F (F represents a maximal response of > 60%) | E (E represents a maximal response of 40-60%) |  |
| O=S(=O)(c1cccc(Cl)c1F)N1CCCCC1c1cccc(C(F)(F)F)c1 (stereo not shown) [Compound 28] | 700 to 2100 | 700 to 2100 | F (F represents a maximal response of > 60%) | D (D represents a maximal response of < 40%) |  |
| O=S(=O)(c1ccc(Cl)cc1)N1CCCC(F)C1c1ccc(F)c(Br)c1 (stereo not shown) [Compound 29] | > 2100 | > 2100 |  |  |  |
| [2H]C1(c2ccc(F)c(Br)c2)C(F)CCCN1S(=O)(=O)c1ccc(Cl)cc1 (stereo not shown) [Compound 29] |  |  | F (F represents a maximal response of > 60%) | E (E represents a maximal response of 40-60%) |  |
| O=S(=O)(c1cccc(Cl)c1)N1CCCC(F)C1c1ccc(F)c(Br)c1 (stereo not shown) [Compound 32] | > 2100 | > 2100 |  |  |  |
| [2H]C1(c2ccc(F)c(Br)c2)C(F)CCCN1S(=O)(=O)c1cccc(Cl)c1 (stereo not shown) [Compound 32] |  |  | F (F represents a maximal response of > 60%) | D (D represents a maximal response of < 40%) |  |
| O=S(=O)(Cc1ccc(Cl)cc1)N1CCCC(F)C1c1ccc(F)c(Br)c1 (stereo not shown) [Compound 33] | > 2100 | > 2100 |  |  |  |
| [2H]C1(c2ccc(F)c(Br)c2)C(F)CCCN1S(=O)(=O)Cc1ccc(Cl)cc1 (stereo not shown) [Compound 33] |  |  | F (F represents a maximal response of > 60%) | D (D represents a maximal response of < 40%) |  |
| O=S(=O)(c1ccc(Cl)cc1F)N1CCCC(F)C1c1ccc(F)c(Br)c1 (stereo not shown) [Compound 37] | > 2100 | > 2100 |  |  |  |
| [2H]C1(c2ccc(F)c(Br)c2)C(F)CCCN1S(=O)(=O)c1ccc(Cl)cc1F (stereo not shown) [Compound 37] |  |  | F (F represents a maximal response of > 60%) | D (D represents a maximal response of < 40%) |  |
| O=S(=O)(c1cc(F)ccc1F)N1CCCC(F)C1c1ccc(F)c(Br)c1 (stereo not shown) [Compound 38] | > 2100 | > 2100 |  |  |  |

| Structure (SMILES) | EC50 (mu opioid receptor (MOR) [1]; β-arrestin recruitment) [nM] | EC50 (mu opioid receptor (MOR) [2]; [4]) [nM] | β-arr Max. Resp. (mu opioid receptor (MOR) [1]; [6]) | cAMP Max. Resp. (mu opioid receptor (MOR) [2]; [7]) | other results |
| --- | --- | --- | --- | --- | --- |
| [2H]C1(c2ccc(F)c(Br)c2)C(F)CCCN1S(=O)(=O)c1cc(F)ccc1F (stereo not shown) [Compound 38] |  |  | F (F represents a maximal response of > 60%) | D (D represents a maximal response of < 40%) |  |
| CC1CCN(S(=O)(=O)c2ccc(Cl)cc2)C1c1ccc(F)c(Br)c1 (stereo not shown) [Compound 106] | 700 to 2100 | < 700 | F (F represents a maximal response of > 60%) | D (D represents a maximal response of < 40%) |  |
| CC1CCN(S(=O)(=O)c2ccc(Cl)cc2)C1c1cccc(Cl)c1 (stereo not shown) [Compound 107] | > 2100 | > 2100 | F (F represents a maximal response of > 60%) | D (D represents a maximal response of < 40%) |  |
| O=S(=O)(c1ccc(Cl)cc1)N1C2CCC(C2)C1c1ccc(F)c(Br)c1 (stereo not shown) [Compound 178] | < 700 | 700 to 2100 | F (F represents a maximal response of > 60%) | D (D represents a maximal response of < 40%) |  |
| O=S(=O)(c1ccc(Cl)cc1)N1C2CCC(C2)C1c1ccc(F)c(Br)c1 (stereo not shown) [Compound 179] | 700 to 2100 | < 700 | F (F represents a maximal response of > 60%) | D (D represents a maximal response of < 40%) |  |
| O=S(=O)(c1cccc(Cl)c1)N1C2CCC(C2)C1c1ccc(F)c(Br)c1 (stereo not shown) [Compound 180] | > 2100 | > 2100 | F (F represents a maximal response of > 60%) | E (E represents a maximal response of 40-60%) |  |
| O=S(=O)(Cc1ccc(Cl)c(Cl)c1)N1C2CCC(C2)C1c1ccc(F)c(Br)c1 (stereo not shown) [Compound 181] | > 2100 | > 2100 | E (E represents a maximal response of 40-60%) | D (D represents a maximal response of < 40%) |  |
| O=S(=O)(Cc1ccccc1)N1C2CCC(C2)C1c1ccc(F)c(Br)c1 (stereo not shown) [Compound 182] | > 2100 | > 2100 | E (E represents a maximal response of 40-60%) | D (D represents a maximal response of < 40%) |  |
| O=S(=O)(Cc1ccccc1Cl)N1C2CCC(C2)C1c1ccc(F)c(Br)c1 (stereo not shown) [Compound 183] | > 2100 | > 2100 | E (E represents a maximal response of 40-60%) | D (D represents a maximal response of < 40%) |  |
| O=S(=O)(c1ccc(Cl)cc1F)N1C2CCC(C2)C1c1ccc(F)c(Br)c1 (stereo not shown) [Compound 184] | > 2100 | > 2100 | F (F represents a maximal response of > 60%) | D (D represents a maximal response of < 40%) |  |
| Fc1cnc(Cl)nc1N1CCSCC1c1cccc(C(F)(F)F)c1 (stereo not shown) [Compound 456] | > 2100 | > 2100 |  |  | β-arr Max. Resp. (mu opioid receptor (MOR) [1]; [3]): F (F represents a maximal response of > 60%); cAMP Max. Resp. (mu opioid receptor (MOR) [2]; [5]): E (E represents a maximal response of 40-60%) |
| Fc1ccc(C2CSCCN2c2nc(Cl)ncc2F)cc1Cl (stereo not shown) [Compound 460] | > 2100 | > 2100 |  |  | β-arr Max. Resp. (mu opioid receptor (MOR) [1]; [3]): F (F represents a maximal response of > 60%); cAMP Max. Resp. (mu opioid receptor (MOR) [2]; [5]): F (F represents a maximal response of > 60%) |
| Fc1ccc(C2CCCCN2Cc2cccc(Cl)n2)cc1Cl (stereo not shown) [compound 1] | < 700 |  | F (F represents a maximal response of > 60%) | F (F represents a maximal response of > 60%) | β-arr. Max Resp. (mu opioid receptor (MOR) [1]; [8]): 138; EC50 (mu opioid receptor (MOR) [1]; [9]): 572 nM; EC50 (mu opioid receptor (MOR) [2]; [10]): 186 nM; EC50 (mu opioid receptor (MOR) [2]; [11]): < 700 nM; cAMP Max Resp. (mu opioid receptor (MOR) [2]; [12]): 63 |
| O=S(=O)(c1ccc(Cl)cc1)N1CCCCC1c1cccc(C(F)(F)F)n1 (stereo not shown) [compound 3] | < 700 |  | F (F represents a maximal response of > 60%) | F (F represents a maximal response of > 60%) | EC50 (mu opioid receptor (MOR) [2]; [11]): < 700 nM |
| Fc1cnc(Cl)nc1N1CCCCC1c1cccc(C(F)(F)F)c1 (stereo not shown) [compound 7] | < 700 |  | F (F represents a maximal response of > 60%) | F (F represents a maximal response of > 60%) | EC50 (mu opioid receptor (MOR) [2]; [11]): < 700 nM |
| COc1ccc(C2CCCCN2S(=O)(=O)c2ccc(C)cc2)cc1Br (stereo not shown) [compound 12] | > 2100 |  | F (F represents a maximal response of > 60%) | E (E represents a maximal response of 40-60%) | EC50 (mu opioid receptor (MOR) [2]; [11]): 700 to 2100 nM |
| COc1ccc(C2CCCCN2S(=O)(=O)c2ccc(F)cc2)cc1Br (stereo not shown) [compound 13] | > 2100 | > 2100 | F (F represents a maximal response of > 60%) | F (F represents a maximal response of > 60%) |  |
| COc1ccc(C2CCCCN2S(=O)(=O)c2ccccc2)cc1Br (stereo not shown) [compound 14] | > 2100 |  | F (F represents a maximal response of > 60%) | E (E represents a maximal response of 40-60%) | allosteric activity for β-arrestin recruitment (mu opioid receptor (MOR) [1]): silent allosteric activity; allosteric activity for β-arrestin recruitment (mu opioid receptor (MOR) [1]; listed as Compound No. 14): dual silent allosteric modulation; β-arr. Max Resp. (mu opioid receptor (MOR) [1]; [8]): 111; EC50 (mu opioid receptor (MOR) [1]; [9]): 13200 nM; allosteric activity for cAMP signaling (mu opioid receptor (MOR) [2]): silent allosteric activity; allosteric activity for cAMP signaling (mu opioid receptor (MOR) [2]; listed as Compound No. 14): dual silent allosteric modulation; EC50 (mu opioid receptor (MOR) [2]; [10]): 9610 nM; EC50 (mu opioid receptor (MOR) [2]; [11]): > 2100 nM; cAMP Max Resp. (mu opioid receptor (MOR) [2]; [12]): 43 |
